Assay results published in patent US4687780A, “Anti-tumor compounds of platinum” (Johnson Matthey PLC, priority 1985, dated 1987).

Experiments:
[1] = LD50 (dose level causing 50% deaths), oral administration; assay type: in vivo, female Balb C^- mice; settings: suspension in arachis oil
Description: (§1) Additionally, the same compounds were tested for activity against ADJ/PC6A plasmacytoma grown subcutaneously in female Balb C^- mice following oral administration as a suspension in arachis oil. Dosage levels were at 100μ mole/kg of body weight for pharmacokinetic tests to establish the extent of absorption into the systemic circulation.
(§2) Results are presented in terms of concentration (μg/ml) of Pt in the blood and cumulative percentage dose in urine, cage wash and faeces, all after specified time intervals. Results for anti-tumor effect are expressed as LD50 (mg/kg), ED90 (mg/kg), and TI (LD50 /ED90). The figures for LD50 (the dose level causing 50% deaths) and ED90 (the dose level causing a 90% reduction in tumor size) are determined by administering dosage levels ranging from lethal to non-tumor inhibitory. The therapeutic index (TI) is an indication of the selectivity of the compound as an anti-tumor agent.

[2] = pharmacokinetic tests: Pt in blood and cumulative percentage dose in urine, cage wash and faeces after oral administration; assay type: in vivo, female Balb C^- mice
Description: as §1, §2

[3] = tested on: B16 melanoma; assay: anti-tumor activity against B16 melanoma in BDF1 female mice, i.p. 9 daily doses; assay type: in vivo; design: median survival time (MST): unit not given here; settings: for % T/C (MST/MST control×100) / median survival time (MST): 9 daily doses from Day 1; for average weight change (AWC): by Day 6
Description: (§3) Compounds according to the invention were screened for anti-tumor activity against L1210 leukaemia and B16 melanoma in mice. The compounds were administered intraperitoneally as solutions or suspensions in water and "Tween" 80 as carrier to CDF1 male mice (L1210) and BDF1 female mice (B16). […] For each dose level, results are quoted in terms of median survival time (MST); the comparative effect (i.e. MST/MST control×100); average weight change (AWC) by Day 5 (L1210) or Day 6 (B16); and the number of mice alive (MA) at Day 5 (L1210) or Day 10 (B16).
(§4) Results were as follows for the compounds as prepared in Examples 3 and 4.
2. B16 (0.5 ml 10% BREI): treatment consisted of 9 daily doses beginning at Day 1.

[4] = tested on: L1210 leukaemia; assay: anti-tumor activity against L1210 leukaemia in CDF1 male mice, i.p. single dose Day 1; assay type: in vivo; design: median survival time (MST): unit not given here; settings: for % T/C (MST/MST control×100) / median survival time (MST): single dose Day 1; for average weight change (AWC): by Day 5
Description: as §3, §4
1. L1210 (1×10^6 cells): treatment consisted of single dose on Day 1.

[5] = tested on: ADJ/PC6A plasmacytoma; assay: activity against ADJ/PC6A plasmacytoma grown subcutaneously in mice, oral administration; assay type: in vivo, female Balb C^- mice; settings: for ED90 (dose level causing a 90% reduction in tumor size): suspension in arachis oil
Description: as §1, §2

[6] = tested on: malignant tumor; settings: certain forms of malignant tumor in humans; cited from earlier work

N.NC1CCCCC1.O=C([O-])C1(C(=O)[O-])CCC1.[Pt+2] [Ex. 3, ammine(cyclobutane-1,1-dicarboxylato)cyclohexylamine platinum(II)]
LD50 (dose level causing 50% deaths) [1]: 1600 mg/kg
Blood conc. of Pt ([2]; 1 hr, oral, 100μ mole/kg, suspension in arachis oil): 0.62 ± 0.11 μg/ml of whole blood
Blood conc. of Pt ([2]; 2 hrs, oral, 100μ mole/kg, suspension in arachis oil): 0.80 ± 0.08 μg/ml of whole blood
Blood conc. of Pt ([2]; 4 hrs, oral, 100μ mole/kg, suspension in arachis oil): 0.64 ± 0.03 μg/ml of whole blood
Blood conc. of Pt ([2]; 7 hrs, oral, 100μ mole/kg, suspension in arachis oil): 0.51 ± 0.09 μg/ml of whole blood
Cage wash (cumulative %) ([2]; 24 hrs, oral, 100μ mole/kg): 5.1 ± 1.2%
Faeces dose (cumulative %) ([2]; 24 hrs, oral, 100μ mole/kg): 57.0 ± 14.1%
Urine dose (cumulative %) ([2]; 24 hrs, oral, 100μ mole/kg): 11.4 ± 2.1%
Blood conc. of Pt ([2]; 24 hrs, oral, 100μ mole/kg, suspension in arachis oil): 0.16 ± 0.05 μg/ml of whole blood
Cage wash (cumulative %) ([2]; 48 hrs, oral, 100μ mole/kg): 6.4 ± 1.8%
Faeces dose (cumulative %) ([2]; 48 hrs, oral, 100μ mole/kg): 62.1 ± 13.7%
Urine dose (cumulative %) ([2]; 48 hrs, oral, 100μ mole/kg): 12.8 ± 1.8%
Blood conc. of Pt ([2]; 48 hrs, oral, 100μ mole/kg, suspension in arachis oil): 0.16 ± 0.03 μg/ml of whole blood
% T/C (MST/MST control×100) ([3]; 6 mg/kg i.p.): 136%
median survival time (MST) ([3]; 6 mg/kg i.p.): 26.5
number of mice alive (MA) ([3]; 6 mg/kg i.p., 9 daily doses, at Day 10): 10/10
average weight change (AWC) ([3]; 6 mg/kg i.p., 9 daily doses): -0.3 g
% T/C (MST/MST control×100) ([3]; 12 mg/kg i.p.): 149%
median survival time (MST) ([3]; 12 mg/kg i.p.): 29.0
number of mice alive (MA) ([3]; 12 mg/kg i.p., 9 daily doses, at Day 10): 10/10
average weight change (AWC) ([3]; 12 mg/kg i.p., 9 daily doses): -1.0 g
% T/C (MST/MST control×100) ([3]; 18 mg/kg i.p.): 174%
median survival time (MST) ([3]; 18 mg/kg i.p.): 34.0
number of mice alive (MA) ([3]; 18 mg/kg i.p., 9 daily doses, at Day 10): 10/10
average weight change (AWC) ([3]; 18 mg/kg i.p., 9 daily doses): -1.6 g
% T/C (MST/MST control×100) ([3]; 24 mg/kg i.p.): 177%
median survival time (MST) ([3]; 24 mg/kg i.p.): 34.5
number of mice alive (MA) ([3]; 24 mg/kg i.p., 9 daily doses, at Day 10): 10/10
average weight change (AWC) ([3]; 24 mg/kg i.p., 9 daily doses): -1.4 g
% T/C (MST/MST control×100) ([4]; 40 mg/kg i.p.): 154%
median survival time (MST) ([4]; 40 mg/kg i.p.): 10.0
number of mice alive (MA) ([4]; 40 mg/kg i.p., single dose, at Day 5): 5/5
average weight change (AWC) ([4]; 40 mg/kg i.p., single dose): -0.1 g
% T/C (MST/MST control×100) ([4]; 80 mg/kg i.p.): 185%
median survival time (MST) ([4]; 80 mg/kg i.p.): 12.0
number of mice alive (MA) ([4]; 80 mg/kg i.p., single dose, at Day 5): 6/6
average weight change (AWC) ([4]; 80 mg/kg i.p., single dose): -2.4 g
% T/C (MST/MST control×100) ([4]; 120 mg/kg i.p.): 185%
median survival time (MST) ([4]; 120 mg/kg i.p.): 12.0
number of mice alive (MA) ([4]; 120 mg/kg i.p., single dose, at Day 5): 6/6
average weight change (AWC) ([4]; 120 mg/kg i.p., single dose): -0.6 g
% T/C (MST/MST control×100) ([4]; 160 mg/kg i.p.): 231%
median survival time (MST) ([4]; 160 mg/kg i.p.): 15.0
number of mice alive (MA) ([4]; 160 mg/kg i.p., single dose, at Day 5): 5/6
average weight change (AWC) ([4]; 160 mg/kg i.p., single dose): -4.5 g
therapeutic index TI (LD50/ED90) [5]: 22
ED90 (dose level causing a 90% reduction in tumor size) [5]: 73 mg/kg

[NH2][Pt]1([NH]C2CCCC2)[O]C(=O)C2(CCC2)C(=O)[O]1 [Ex. 4, ammine(cyclobutane-1,1-dicarboxylato)cyclopentylamine platinum(II)]
LD50 (dose level causing 50% deaths) [1]: 1600 mg/kg
Blood conc. of Pt ([2]; mouse, in vivo, po, 1 h): 0.88 ± 0.05 μg/ml of whole blood
Blood conc. of Pt ([2]; mouse, in vivo, po, 2 h): 1.21 ± 0.16 μg/ml of whole blood
Blood conc. of Pt ([2]; mouse, in vivo, po, 4 h): 0.82 ± 0.12 μg/ml of whole blood
Blood conc. of Pt ([2]; mouse, in vivo, po, 7 h): 0.32 ± 0.05 μg/ml of whole blood
Blood conc. of Pt ([2]; mouse, in vivo, po, 24 h): 0.20 ± 0.03 μg/ml of whole blood
Cage wash (cumulative %) ([2]; mouse, in vivo, po, 24 h): 7.1 ± 0.7%
Faeces dose (cumulative %) ([2]; mouse, in vivo, po, 24 h): 57.6 ± 3.5%
Urine dose (cumulative %) ([2]; mouse, in vivo, po, 24 h): 16.8 ± 2.4%
Blood conc. of Pt ([2]; mouse, in vivo, po, 48 h): 0.20 ± 0.03 μg/ml of whole blood
Cage wash (cumulative %) ([2]; mouse, in vivo, po, 48 h): 8.0 ± 0.9%
Faeces dose (cumulative %) ([2]; mouse, in vivo, po, 48 h): 59.8 ± 3.6%
Urine dose (cumulative %) ([2]; mouse, in vivo, po, 48 h): 18.2 ± 2.4%
% T/C (MST/MST control×100) ([3]; 8 mg/kg): 115%
median survival time (MST) ([3]; 8 mg/kg): 22.5
% T/C (MST/MST control×100) ([3]; 13 mg/kg i.p.): 133%
median survival time (MST) ([3]; 13 mg/kg i.p.): 26.0
% T/C (MST/MST control×100) ([3]; 20 mg/kg i.p.): 149%
median survival time (MST) ([3]; 20 mg/kg i.p.): 29.0
% T/C (MST/MST control×100) ([3]; 30 mg/kg i.p.): 164%
median survival time (MST) ([3]; 30 mg/kg i.p.): 32.0
number of mice alive (MA) ([3]; mouse, in vivo): 10/10
% T/C (MST/MST control×100) ([4]; 40 mg/kg i.p.): 154%
median survival time (MST) ([4]; 40 mg/kg i.p.): 10.0
% T/C (MST/MST control×100) ([4]; 80 mg/kg i.p.): 177%
median survival time (MST) ([4]; 80 mg/kg i.p.): 11.5
% T/C (MST/MST control×100) ([4]; 120 mg/kg i.p.): 177%
median survival time (MST) ([4]; 120 mg/kg i.p.): 11.5
% T/C (MST/MST control×100) ([4]; 160 mg/kg i.p.): 192%
median survival time (MST) ([4]; 160 mg/kg i.p.): 12.5
number of mice alive (MA) ([4]; mouse, in vivo): 6/6
therapeutic index TI (LD50/ED90) [5]: 32
ED90 (dose level causing a 90% reduction in tumor size) [5]: 50 mg/kg

N.N.[Cl][Pt][Cl] [cisplatin, cis-diamminedichloroplatinum(II), reference compound]
% T/C (MST/MST control×100) ([3]; 0.4 mg/kg): 131%
median survival time (MST) ([3]; 0.4 mg/kg): 25.5
number of mice alive (MA) ([3]; 0.4 mg/kg, 9 daily doses, at Day 10): 10/10
average weight change (AWC) ([3]; 0.4 mg/kg, 9 daily doses): -0.9 g
% T/C (MST/MST control×100) ([3]; 0.8 mg/kg): 164%
median survival time (MST) ([3]; 0.8 mg/kg): 32.0
number of mice alive (MA) ([3]; 0.8 mg/kg, 9 daily doses, at Day 10): 10/10
average weight change (AWC) ([3]; 0.8 mg/kg, 9 daily doses): -1.5 g
% T/C (MST/MST control×100) ([3]; 1.6 mg/kg): 187%
median survival time (MST) ([3]; 1.6 mg/kg): 36.5
number of mice alive (MA) ([3]; 1.6 mg/kg, 9 daily doses, at Day 10): 10/10
average weight change (AWC) ([3]; 1.6 mg/kg, 9 daily doses): -3.1 g
% T/C (MST/MST control×100) ([3]; 2.4 mg/kg): 231%
median survival time (MST) ([3]; 2.4 mg/kg): 45.0
number of mice alive (MA) ([3]; 2.4 mg/kg, 9 daily doses, at Day 10): 10/10
average weight change (AWC) ([3]; 2.4 mg/kg, 9 daily doses): -3.9 g
% T/C (MST/MST control×100) ([4]; 4 mg/kg): 146%
median survival time (MST) ([4]; 4 mg/kg): 9.5
number of mice alive (MA) ([4]; 4 mg/kg, single dose, at Day 5): 6/6
average weight change (AWC) ([4]; 4 mg/kg, single dose): -0.8 g
% T/C (MST/MST control×100) ([4]; 6 mg/kg): 169%
median survival time (MST) ([4]; 6 mg/kg): 11.0
number of mice alive (MA) ([4]; 6 mg/kg, single dose, at Day 5): 6/6
average weight change (AWC) ([4]; 6 mg/kg, single dose): -3.2 g
% T/C (MST/MST control×100) ([4]; 8 mg/kg): 192%
median survival time (MST) ([4]; 8 mg/kg): 12.5
number of mice alive (MA) ([4]; 8 mg/kg, single dose, at Day 5): 6/6
average weight change (AWC) ([4]; 8 mg/kg, single dose): -4.6 g
% T/C (MST/MST control×100) ([4]; 10 mg/kg): 123%
median survival time (MST) ([4]; 10 mg/kg): 8.0
number of mice alive (MA) ([4]; 10 mg/kg, single dose, at Day 5): 6/6
average weight change (AWC) ([4]; 10 mg/kg, single dose): -4.7 g
treatment of malignant tumor [6]: effective for the treatment of certain forms of malignant tumor in humans
ED90 (dose level causing a 90% reduction in tumor size) [5]: 24 mg/kg
